IC50 data for eleven molecules are collected here from patent US6784173B2, “Aromatic dicarboxylic acid derivatives” (Hoffmann-La Roche Inc., priority 2001, dated 2004).

The subject of the experiment is HT-29 cells (human colon carcinoma cell line). Description: MTT tetrazolium dye proliferation assay on HT-29 cells. The format is cell-based. The conditions noted are these: MTT assay after 5 days of compound exposure, 30 uM to 1.5 nM, read-out: IC50 HT29. The protocol:
MTT (tetrazolium dye proliferation assay) is widely used for the quantitative determination of cytotoxic effects or in vitro chemosensitivity of tumor cells. The assay is based on the cleavage of the yellow tetrazolium salt MTT to purple formazan crystals by metabolic active cells. For details, see Rubinstein, L. V., et al., J. Natl. Cancer Inst. 82 (1990) 1113-1118.
The following procedure was performed: HT-29 cells (human colon carcinoma cell line) were cultivated in RPMI 1640, 2.5% FCS, 2 mM Glutamine, 100 u/ml Penicillin, 100 ug/ml Streptomycin. For the assay the cells were seeded in 384 well plates, 900 cells per well, in the same medium The next day compounds (dissolved 10 mM in DMSO) were added in various concentrations ranging from 30 uM to 1.5 nM. After 5 days the MTT assay was done mainly according to the instructions of the manufacturer (Cell proliferation kit I, MTT, form Roche Molecular Biochemicals). In brief: MTT labeling reagent was added to a final concentration of 0.5 mg/ml, added and incubated for 4 hrs at 37 C., 5% CO2. During this incubation time purple formazan crystals are formed. After addition of the solubilization solution (20% SDS in 0.02 M HCl) the plates were incubated overnight at 37 C, 5% CO2. After careful mixing plates were measured in Victor 2 (scanning multiwell spectrophotometer, Wallac) at 550 nm.
A decrease in number of living cells results in a decrease in the total metabolic activity in the sample. The decrease directly correlates to the amount of purple colour resulting from the solubilization of the purple formazan crystals. Determination of IC50 was done using XL-fit.

Molecules are shown by their SMILES.

As a reminder, the IC50 is the concentration at which inhibition is half-maximal.

`O=C(NO)c1ccc(C(=O)NCc2cccc(Br)c2)s1` [Example 15, No. 94, Thiophene-2,5-dicarboxylic acid 2-(3-bromo-benzylamide) 5-hydroxyamide]: the IC50 worked out at 70 nM. For `CC(C)(C)c1ccc(CNC(=O)c2ccc(C(=O)NO)s2)cc1` [Example 15, No. 98, Thiophene-2,5-dicarboxylic acid 2-(4-tert-butyl-benzylamide) 5-hydroxyamide], the half-inhibitory concentration (IC50) turned out to be 70 nM. Take `O=C(NO)c1ccc(C(=O)NCc2cc(C(F)(F)F)cc(C(F)(F)F)c2)s1` [Example 15, No. 93, Thiophene-2,5-dicarboxylic acid 2-(3,5-bis-trifluoromethyl-benzylamide) 5-hydroxyamide]: the IC50 stood at 50 nM. `O=C(NO)c1ccc(C(=O)NCCC(c2ccccc2)c2ccccc2)s1` [Example 15, No. 90, thiophene-2,5-dicarboxylic acid 2-[(3,3-diphenyl-propyl)-amide] 5-hydroxyamide]: the IC50 was 140 nM. In the case of `CC(C)CCCC(C)NC(=O)c1ccc(C(=O)NO)s1` (centres unmarked) [Example 15, No. 81, thiophene-2,5-dicarboxylic acid 2-[(1,5-dimethyl-hexyl)-amide] 5-hydroxyamide], the half-inhibitory concentration (IC50) was determined as 30 nM. With `O=C(NO)c1ccc(C(=O)NCCOc2ccccc2)s1` [Example 15, No. 104, Thiophene-2,5-dicarboxylic acid 2-hydroxyamide 5-[(2-phenoxy-ethyl)-amide]], the IC50 was 40 nM. For `O=C(NO)c1ccc(C(=O)NCc2ccc(Cl)c(Cl)c2)s1` [Example 15, No. 139, Thiophene-2,5-dicarboxylic acid 2-(3,4-dichloro-benzylamide) 5-hydroxyamide], the IC50 worked out at 170 nM. With `CC(CCc1ccccc1)NC(=O)c1ccc(C(=O)NO)s1` (centres unmarked) [Example 15, No. 128, Thiophene-2,5-dicarboxylic acid 2-hydroxyamide 5-[(1-methyl-3-phenyl-propyl)-amide]], the IC50 turned out to be 20 nM. For the molecule `O=C(NO)c1ccc(C(=O)NCc2ccc(C(F)(F)F)cc2)s1` [Example 2, Thiophene-2,5-dicarboxylic acid 2-hydroxyamide 5-(4-trifluoromethyl-benzylamide)], the IC50 was 110 nM. With `O=C(NO)c1ccc(C(=O)NCc2cccc(Cl)c2)s1` [Example 4, Thiophene-2,5-dicarboxylic acid 2-(3-chloro-benzylamide) 5-hydroxyamide], the IC50 stood at 140 nM.

For the molecule `Cc1cc(C)cc(CNC(=O)c2ccc(C(=O)NO)s2)c1` [Example 5, Thiophene-2,5-dicarboxylic acid 2-(3,5-dimethyl-benzylamide) 5-hydroxyamide], the IC50 is 50 nM.
